Measured values from ChEMBL document CHEMBL5532643, “Design and synthesis of etrasimod derivatives as potent antibacterial agents against Gram-positive bacteria” (Eur J Med Chem, 2024).
Values after ≈ are worked out from the molar mass of the structure shown. Values joined by “and” are separate entries in the source; they are usually repeats but may differ in a detail not shown here. Identical values can stand only once. Active and inactive are the calls of the source. No cut-off for these calls is given here.

How the values were obtained:
Staphylococcus aureus [1] = test: Antibacterial activity against Staphylococcus aureus ATCC 25923 assessed as reduction in bacterial growth incubated for 18 to 20 hrs by broth microdilution assay; format: functional; conditions: time 18-20 hrs
Staphylococcus aureus [2] = test: Antibacterial activity against Staphylococcus aureus ATCC 25923 assessed as inhibition of bacterial growth at 40 uM incubated for 18 to 24 hrs by broth microdilution assay relative to control; format: functional; conditions: time 18-24 hrs
Staphylococcus aureus [3] = test: Antibiofilm activity against Staphylococcus aureus ATCC 25923 assessed as inhibition of biofilm viability at 100 uM incubated for 18 to 20 hrs by resazurin staining based assay; format: functional; conditions: time 18-20 hrs
Staphylococcus aureus [4] = test: Antibiofilm activity against Staphylococcus aureus ATCC 25923 assessed as inhibition of biofilm biomass at 100 uM incubated for 18 to 20 hrs by crystal violet staining based assay; format: functional; conditions: time 18-20 hrs
Staphylococcus aureus [5] = test: Antibiofilm activity against Staphylococcus aureus ATCC 25923 assessed as reduction in biofilm biomass at 100 uM incubated for 18 to 20 hrs by crystal violet staining based assay; format: functional; parameters: scale not given: the % may be the effect or the level left; conditions: time 18-20 hrs
Staphylococcus aureus [6] = test: Antibacterial activity against Staphylococcus aureus ATCC 43300 assessed as reduction in bacterial growth incubated for 18 to 20 hrs by broth microdilution assay; format: functional; conditions: time 18-20 hrs
[7] = test system: Staphylococcus epidermidis; test: Antibacterial activity against Staphylococcus epidermidis RP62A assessed as reduction in bacterial growth incubated for 18 to 20 hrs by broth microdilution assay; format: functional; conditions: time 18-20 hrs
[8] = test system: Staphylococcus epidermidis; test: Antibacterial activity against […] Staphylococcus epidermidis RP62A assessed as reduction in bacterial growth incubated for 18 to 20 hrs by broth microdilution assay; format: functional; conditions: time 18-20 hrs
Enterococcus faecalis [9] = test: Antibacterial activity against Enterococcus faecalis ATCC 29212 assessed as reduction in bacterial growth incubated for 18 to 20 hrs by broth microdilution assay; format: functional; conditions: time 18-20 hrs
Enterococcus faecalis [10] = test: Antibacterial activity against vancomycin-resistant Enterococcus faecalis ATCC 51575 assessed as reduction in bacterial growth incubated for 18 to 20 hrs by broth microdilution assay; format: functional; conditions: time 18-20 hrs
Enterococcus faecium = test: Antibacterial activity against vancomycin-resistant Enterococcus faecium ATCC 700221 assessed as reduction in bacterial growth incubated for 18 to 20 hrs by broth microdilution assay; format: functional; conditions: time 18-20 hrs
Staphylococcus aureus [11] = test: Drug resistance, ratio of MIC for Staphylococcus aureus ATCC 25923 after 20 days exposure to MIC for Staphylococcus aureus ATCC 25923 during first exposure; format: functional; conditions: time 20 day
Staphylococcus aureus [12] = test: Drug resistance, ratio of MIC for methicillin-resistant Staphylococcus aureus after 20 days exposure to MIC for methicillin-resistant Staphylococcus aureus during first exposure; format: functional; conditions: time 20 day
Cell membrane [13] = test: Induction of cell membrane permeability in Staphylococcus aureus ATCC 25923 assessed as increase in fluorescence intensity incubated for 30 mins by PI staining based analysis; format: cell membranes
Cell membrane [14] = test: Induction of cell membrane permeability in Staphylococcus aureus ATCC 25923 assessed as increase in fluorescence intensity at 4 times MIC incubated for 30 mins by PI staining based analysis; format: cell membranes
Staphylococcus aureus [15] = test: Antibacterial activity against […] Staphylococcus aureus ATCC 43300 assessed as reduction in bacterial growth incubated for 18 to 20 hrs by broth microdilution assay; format: functional; conditions: time 18-20 hrs
Staphylococcus aureus [16] = test: Antimicrobial activity against Staphylococcus aureus ATCC 25923 infected in Caenorhabditis elegans AU37 assessed as reduction in bacterial burden at 20 uM incubated for 18 hrs; format: functional; parameters: scale not given: the % may be the effect or the level left
Staphylococcus aureus [17] = test: Antimicrobial activity against methicillin-resistant Staphylococcus aureus ATCC 43300 infected in Caenorhabditis elegans AU37 assessed as reduction in bacterial burden at 20 uM incubated for 18 hrs; format: functional; parameters: scale not given: the % may be the effect or the level left
[18] = Dissociation constant, pKa of compound; format: physicochemical
Pseudomonas aeruginosa = test: Antibacterial activity against Pseudomonas aeruginosa ATCC 15442 assessed as reduction in bacterial growth incubated for 18 to 20 hrs by broth microdilution assay; format: functional; conditions: time 18-20 hrs
Acinetobacter baumannii = test: Antibacterial activity against Acinetobacter baumannii NCTC 13423 assessed as reduction in bacterial growth incubated for 18 to 20 hrs by broth microdilution assay; format: functional; conditions: time 18-20 hrs
Cell membrane [19] = test: Induction of cytoplasmic membrane depolarization in Staphylococcus aureus ATCC 25923 assessed as increase in fluorescence intensity at 4 times MIC measured for 30 mins by DiSC3(5) dye based fluorescence method; format: cell membranes
[20] = Cytotoxicity against human THP-1 cells assessed as reduction in cell viability incubated for 24 hrs by resazurin staining based analysis; format: toxicity
THP-1 = test: Cytotoxicity against human THP-1 cells assessed as reduction in cell viability at 50 uM incubated for 24 hrs by resazurin staining based analysis relative to control; format: toxicity; conditions: thp-1, 24 h
[21] = Hemolytic activity in mouse RBC assessed as hemolysis at 250 uM incubated for 1 hr; format: toxicity, cell-based, Erythrocyte; conditions: mouse red blood cells (erythrocytes), read-out: Activity
[22] = Hemolytic activity in mouse RBC assessed as hemolysis at 125 uM incubated for 1 hr; format: toxicity, cell-based, Erythrocyte; conditions: mouse red blood cells (erythrocytes), read-out: Activity
Erythrocyte = test: Hemolytic activity in mouse RBC assessed as hemolysis at 62.5 uM incubated for 1 hr; format: toxicity, cell-based
[23] = Toxicity in Caenorhabditis elegans AU37 assessed as worms survival at 10 uM measured after 72 hrs

| SMILES | MIC (Staphylococcus aureus [1]) | inhibition at 100 µM (Staphylococcus aureus [3]) [%] | inhibition at 100 µM (Staphylococcus aureus [4]) [%] | MIC (Staphylococcus aureus [6]) [µM] | MIC [7] [µM] | MIC [8] [µM] | MIC (Enterococcus faecalis [9]) [µM] | MIC (Enterococcus faecalis [10]) [µM] | MIC (Enterococcus faecium) [µM] | MIC (Staphylococcus aureus [15]) [µM] | Activity (Staphylococcus aureus [16]) [%] | Activity (Staphylococcus aureus [17]) [%] | further results |
| --- | --- | --- | --- | --- | --- | --- | --- | --- | --- | --- | --- | --- | --- |
| O=C(O)CC1CCc2c1[nH]c1ccc(OCc3cnc(C4CCCC4)c(C(F)(F)F)c3)cc21 (centres undefined) | 20 µM and 9.2 µg/mL | > 90 | > 90 | – | – | – | – | – | – | – | – | – | inhibition at 40 µM (Staphylococcus aureus [2]): ≤ 90%; Activity (Staphylococcus aureus [5]): 50% |
| O=C(O)c1cn(C2CC2)c2cc(N3CCNCC3)c(F)cc2c1=O [CIPROFLOXACIN] | – | – | – | 2.5 (≈ 0.828 µg/mL) | 0.625 (≈ 0.207 µg/mL) | 1.25 (≈ 0.414 µg/mL) | 2.5 (≈ 0.828 µg/mL) | 2.5 (≈ 0.828 µg/mL) | 40 (≈ 13.3 µg/mL) | – | – | – | Ratio (Staphylococcus aureus [11]): 80; Ratio (Staphylococcus aureus [12]): 170 |
| CC[C@H](C)[C@H](NC(=O)CN)C(=O)NCC(=O)N[C@@H](C)C(=O)N[C@H](C(=O)N[C@@H](CC(C)C)C(=O)N[C@@H](CCCCN)C(=O)N[C@H](C(=O)N[C@@H](CC(C)C)C(=O)N[C@H](C(=O)N[C@H](C(=O)NCC(=O)N[C@@H](CC(C)C)C(=O)N1CCC[C@H]1C(=O)N[C@@H](C)C(=O)N[C@@H](CC(C)C)C(=O)N[C@H](C(=O)N[C@@H](CO)C(=O)N[C@@H](Cc1c[nH]c2ccccc12)C(=O)N[C@H](C(=O)N[C@@H](CCCCN)C(=O)N[C@@H](CCCNC(=N)N)C(=O)N[C@@H](CCCCN)C(=O)N[C@@H](CCCNC(=N)N)C(=O)N[C@@H](CCC(N)=O)C(=O)N[C@@H](CCC(N)=O)C(N)=O)[C@@H](C)CC)[C@@H](C)CC)[C@@H](C)O)[C@@H](C)O)C(C)C)C(C)C | – | – | – | – | – | – | – | – | – | – | – | – | Activity (Cell membrane [13]): Active |
| CN[C@H](CC(C)C)C(=O)N[C@H]1C(=O)N[C@@H](CC(N)=O)C(=O)N[C@H]2C(=O)N[C@H]3C(=O)N[C@H](C(=O)N[C@H](C(=O)O)c4cc(O)cc(O)c4-c4cc3ccc4O)[C@H](O)c3ccc(c(Cl)c3)Oc3cc2cc(c3O[C@@H]2O[C@H](CO)[C@@H](O)[C@H](O)[C@H]2O[C@H]2C[C@](C)(N)[C@H](O)[C@H](C)O2)Oc2ccc(cc2Cl)[C@H]1O [VANCOMYCIN] | 2.5 µM and 3.6 µg/mL | 50 | 25 | 1.25 (≈ 1.81 µg/mL) | 2.5 (≈ 3.62 µg/mL) | 2.5 (≈ 3.62 µg/mL) | 2.5 (≈ 3.62 µg/mL) | 40 (≈ 58 µg/mL) | 40 (≈ 58 µg/mL) | 1.25 (≈ 1.81 µg/mL) | 72 | 61 | Activity (Cell membrane [14]): inactive |
| O=C(O)C[C@H]1CCc2c1[nH]c1ccc(OCc3ccc(C4CCCC4)c(C(F)(F)F)c3)cc21 [ETRASIMOD] | 5 µM and 2.3 µg/mL | 80 | 20 | 5 (≈ 2.29 µg/mL) | 10 (≈ 4.57 µg/mL) | 5 (≈ 2.29 µg/mL) | 5 (≈ 2.29 µg/mL) | 10 (≈ 4.57 µg/mL) | 5 (≈ 2.29 µg/mL) | 5 (≈ 2.29 µg/mL) | >85 | 77 | pKa [18]: 4; MIC (Pseudomonas aeruginosa): > 200 µM; MIC (Acinetobacter baumannii): > 200 µM; Activity (Cell membrane [19]): inactive; CC50 at 24 h [20]: 57.7 µM; Activity (THP-1): 64%; hemolysis at 1 h, 250 µM [21]: 100%; hemolysis at 1 h, 125 µM [22]: 7%; Activity (Erythrocyte): Non-Toxic; Activity [23]: Non-Toxic |
